Measured values taken from patent US8637535B2, “Polymorphic and other crystalline forms of cis-FTC” (Gilead Sciences, Inc., priority 2001, dated 2014).

What was measured:
[1] = tested on: HIV; settings: racemic mixture; cited from earlier work
[2] = tested on: HIV; settings: cited from earlier work
[3] = hand trituration 5 minutes or Fitzpatrick mill; DSC and PXRD
Protocol: Milling: (−)-cis-FTC was milled in a Fitzpatrick mill at high speed (4000 RPM), hammers forward with a 000-band screen. The drug was passed through the filter once and collected in a plastic bag.
Two batches of milled Form I (−)-cis-FTC were prepared: one by hand trituration in a mortar and pestle for 5 minutes, another by milling in a Fitzpatrick mill.

[4] = solubility values greater than 100 mg/mL are considered highly soluble
Protocol: Equilibrium Solubility: Equilibrium solubility values were obtained using an excess of solid in a stoppered flask shaken in a temperature-controlled water bath at 25 C for 52 hours. Residual solid material was identified postequilibrium by hot-stage microscopy and PXRD. The supernatant was filtered across 0.45-μm membrane filters prior to dilution for HPLC analysis.

[5] = below 130° C.
[6] = heated to 160° C., cooled to 25° C., reheated at 10° C./min
Protocol: Thermal events for Form I (−)-cis-FTC upon melting and subsequent cooling to room temperature were observed by DSC. A 5.5500 mg sample of Form I (−)-cis-FTC was heated to 160° C., that is just above the melting temperature for Form I, and then cooled back to 25° C.

## Nc1ccn(C2CSC(CO)O2)c(=O)n1 (racemic) [BCH-189, 2-hydroxymethyl-5-(cytosin-1-yl)-1,3-oxathiolane]
[1]
  activity against HIV relative to AZT: approximately the same activity against HIV as AZT

## Nc1nc(=O)n([C@@H]2CS[C@H](CO)O2)cc1F [(−)-(cis)-FTC, 4-amino-5-fluoro-1-(2-(hydroxymethyl)-1,3-oxathiolan-5-yl)-2(1H)-pyrimidinone (2R-cis)]
[2]
  HIV activity: potent

## Nc1nc(=O)n([C@@H]2CS[C@H](CO)O2)cc1F [Form I, β-L-2-hydroxymethyl-5-(5-fluorocytosin-1-yl)-1,3-oxathiolane]
[3]
  effect of milling on crystal form: does not affect the crystal form
[4]
  solubility category: highly soluble
[5]
  thermodynamic stability among phases: most stable phase
[6]
  change in potency by HPLC: no change in potency
